According to patent publication US7122530B2, “24-hydroxyvitamin D, analogs and uses thereof” (Genzyme Corporation, priority 1998, dated 2006):

Key:
[1] = test system: dermatitis (contact and ectopic) patients; test: Double blind study of oral 24-OH-D2 formulation in dermatitis (contact and ectopic); assay type: in vivo, human; settings: daily oral 10.0 to 20.0 μg, four to six weeks
Method: An oral dosage formulation containing 24-OH-D2 is evaluated in a double blind study for therapeutic efficacy of the formulation in the treatment of dermatitis (contact and ectopic). The formulation evaluated contains 10.0 to 20.0 μg of 24-OH-D2. […] The patients are treated in an outpatient clinic and are divided into an experimental and control population. They are instructed to take the medication once a day, in the morning before breakfast.
In each patient (experimental and control) an area of the skin containing a lesion is selected which is ordinarily covered by clothing, and the patients are instructed not to expose the skin area selected for study to sunlight. The area of the lesion is estimated and recorded, and the lesion(s) is photographed. Relevant details of the photographic procedure are recorded so as to be reproduced when the lesions are next photographed (distance, aperture, angle, background, etc.).
Evaluations of erythema, scaling, and thickness are conducted at weekly intervals by a physician. The final evaluation is usually carried out at the end of four to six weeks of treatment.

[2] = test system: patients with advanced androgen-independent prostate cancer; test: Open-label two-phase study of oral 24-(OH)-D2 in prostate cancer; assay type: in vivo; settings: for progression of metastatic disease (CAT scans, X-rays and bone scans): second phase, after one and two years
From the text: Patients with advanced androgen-independent prostate cancer participate in an open-label study of 24-(OH)-D2. […] On admission to the study, patients begin a course of therapy with oral 24-(OH)-D2 lasting 26 weeks, while discontinuing any previous use of calcium supplements, vitamin D supplements, and vitamin D hormone replacement therapies. During treatment, the patients are monitored at regular intervals for: (1) hypercalcemia, hyperphosphatemia, hypercalciuria, hyperphosphaturia and other toxicity; (2) evidence of changes in the progression of metastatic disease; and (3) compliance with the prescribed test drug dosage.
The study is conducted in two phases. During the first phase, the maximal tolerated dosage (MTD) of daily oral 24-(OH)D2 is determined by administering progressively higher dosages to successive groups of patients. All doses are administered in the morning before breakfast. The first group of patients is treated with 25.0 μg of 24-(OH)D2. Subsequent groups of patients are treated with 50.0, 75.0 and 100.0 μg/day. Dosing is continued uninterrupted for the duration of the study unless serum calcium exceeds 11.6 mg/dL, or other toxicity of grade 3 or 4 is observed, in which case dosing is held in abeyance until resolution of the observed toxic effect(s) and then resumed at a level which has been decreased by 10.0 μg.
During the second phase, patients are treated with 24-(OH)D2 for 24 months at 0.5 and 1.0 times the MTD.

[3] = test system: renal patients with secondary hyperparathyroidism; test: Clinical trial of 24-OH-D2 for secondary hyperparathyroidism in end stage renal disease; assay type: in vivo, human
Method: Thirty renal patients are enrolled in a clinical trial to study secondary hyperparathyroidism. The patients show baseline iPTH levels greater than 1000 pg/mL. An initial dose of 24-OH-D2 (50 μg 3 times/week) is increased (maximum, 100 μg 3 times/ week) or decreased as necessary to attain and maintain iPTH in the range of 150–300 pg/mL. After 11–12 weeks of treatment, the iPTH levels of the patients decrease to below 1000 pg/mL, and in many cases to below 500 pg/mL.

[4] = test system: cytotoxic thymus-derived lymphocyte (CTL) activity; test: Immunological testing: CTL activity in mice immunized with allogeneic P815 tumor cells; assay type: in vivo, C57BL/6 mice; settings: both tests: 5 micrograms daily i.p., or 10 micrograms i.p. twice; assay 10 days after immunization
Method: Female C57BL/6 mice are used between the ages of 9–12 weeks. Mice are given food and water ad libitum and are kept in a 12-hour light and 12-hour dark cycle.
A known balanced salt solution (BSS) is prepared and supplemented to 0.01 molar with HEPES buffer.
The test compound, 24-OH-D2, is dissolved in dimethylsulfoxide at final concentrations of 0.2 or 0.4 mg per ml. When working with vitamin D compounds, conditions of reduced lighting were employed.
Mice are apportioned at 4 per group and are inoculated intraperitoneally with 3×10^6 allogeneic P815 tumor cells and the resulting cytotoxic thymus-derived lymphocyte (CTL) activity is assessed 10 days later. Mice are treated by the intraperitoneal route with 25 microliters of test compound dissolved in dimethylsulfoxide or with dimethylsulfoxide only (vehicle control). […]
Ten days after immunization of mice with P815 cells, single spleen cell suspensions are prepared by passage of spleens through a steel mesh into BSS and are subsequently washed twice with BSS. […] Cytotoxic T lymphocyte activity is determined individually on spleen cells from each animal in each group and the results are expressed as the mean CTL activity (as percent specific Cr release) of each group ± the standard deviation.

[5] = In vivo generation of 1α,24-(OH)2-D2 in vitamin D-deficient rats (plasma metabolites by HPLC); settings: vitamin D-deficient rats; oral or intraperitoneal supplementation; HPLC
Method: 24-OH-D2 was administered (either oral or intraperitoneal supplementation) to vitamin D-deficient rats. Lipid extracts of the plasma were prepared and the metabolites purified by the method of Horst et al. (Horst, R. L., Koszewski, N. J. and Reinhardt, T. A., Biochem., 29:578–82 (1990) and incorporated herein by reference) described below for synthesizing standard biological 1α,24-(OH)2D2.

C=C1CC[C@H](O)C/C1=C/C=C1\CCC[C@]2(C)[C@@H]([C@H](C)/C=C/C(C)(O)C(C)C)CC[C@@H]12 (some centres unmarked) [24-OH-D2, 24-hydroxyvitamin D2]
degree of erythema, scaling, and thickness versus control patients [1]: significantly reduces
MTD level relative to what can be achieved with 1α,25-(OH)2D3 ([2]; first phase): 10- to 50 fold
circulating levels of 1α,25-(OH)2D3 ([2]; first phase): suppressed, often to undetectable levels
levels of circulating 24-(OH)D2 versus dosage administered ([2]; in vivo): increase proportionately with the dosage administered
maximum levels of circulating 24-(OH)D2 ([2]; in vivo): above 100 pg/mL
serum and urine calcium ([2]; in vivo): elevated in a dose responsive manner
progression of metastatic disease (CAT scans, X-rays and bone scans) ([2]; higher dosage (1.0 times the MTD)): stable disease and partial or complete remission in many patients
progression of metastatic disease (CAT scans, X-rays and bone scans) ([2]; lower dosage (0.5 times the MTD)): stable disease or partial remission in many patients
bone pain associated with metastatic disease ([2]; treated with the MTD for at least six months): significantly diminished
iPTH levels of the patients ([3]; after 11–12 weeks, baseline greater than 1000 pg/mL, 50 μg 3 times/week, titrated): below 1000 pg/mL
iPTH levels, in many cases ([3]; after 11–12 weeks, in many cases): below 500 pg/mL
episodes of hypercalcemia ([3]; during the study): few episodes of hypercalcemia
CTL activity versus vehicle control [4]: statistically significant reduction
metabolite isolated from plasma lipid extracts versus standard 1α,24-(OH)2D2 [5]: co-migrated on HPLC with the standard 1α,24-(OH)2D2
